Results on five compounds are retold here after PMC12239085, “Silver(I) Ions Bridging Oxadiazole-2-thione Derivatives with Mitochondriotropic Agents: A Promising Strategy for Potent Anticancer Chemotherapy” (Inorganic Chemistry, 2025).

Test [1] concerns the target T1, lipoxygenase (LOX) (Glycine max, UniProt P08170).
T1 sequence (P08170 1-839): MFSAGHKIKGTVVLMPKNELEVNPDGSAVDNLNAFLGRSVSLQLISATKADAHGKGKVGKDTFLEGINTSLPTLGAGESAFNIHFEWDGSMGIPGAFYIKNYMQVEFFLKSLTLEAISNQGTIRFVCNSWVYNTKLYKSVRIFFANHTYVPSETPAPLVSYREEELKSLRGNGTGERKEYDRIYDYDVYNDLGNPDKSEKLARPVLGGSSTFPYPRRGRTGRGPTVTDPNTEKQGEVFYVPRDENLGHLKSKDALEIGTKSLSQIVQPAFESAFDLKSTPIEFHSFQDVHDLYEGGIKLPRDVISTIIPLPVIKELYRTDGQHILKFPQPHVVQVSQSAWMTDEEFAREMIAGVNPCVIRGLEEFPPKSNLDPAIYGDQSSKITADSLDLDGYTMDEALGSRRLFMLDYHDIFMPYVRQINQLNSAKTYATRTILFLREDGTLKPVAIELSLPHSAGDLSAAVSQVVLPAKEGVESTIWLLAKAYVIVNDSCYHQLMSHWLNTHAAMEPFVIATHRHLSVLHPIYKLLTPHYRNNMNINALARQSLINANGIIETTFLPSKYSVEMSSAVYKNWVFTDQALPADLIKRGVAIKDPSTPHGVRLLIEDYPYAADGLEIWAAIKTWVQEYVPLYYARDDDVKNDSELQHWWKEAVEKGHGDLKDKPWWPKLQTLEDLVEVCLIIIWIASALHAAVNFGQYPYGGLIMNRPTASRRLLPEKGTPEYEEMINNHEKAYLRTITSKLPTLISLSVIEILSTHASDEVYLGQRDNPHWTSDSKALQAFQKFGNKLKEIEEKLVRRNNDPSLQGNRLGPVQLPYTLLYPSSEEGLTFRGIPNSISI
In words: Inhibition of linoleic acid peroxidation by LOX. Type of test: biochemical. As to conditions: for IC50: linoleic acid 0.3 mM, borate buffer pH 9, read-out: IC50 against LOX; for pIC50 LOX: p(IC50)= -Log(IC50), Table S4, this study. Here is the method: This study performed as previously reported. , In brief, a 0.2 M borate buffer solution at pH 9 was prepared by dissolving boric acid in double-distilled water (ddw). The pH was then adjusted to 9.0 using a 50% w/w sodium hydroxide solution.
The linoleic acid substrate solution was prepared as follows: 0.05 mL of linoleic acid was dissolved in 0.05 cm^3 of 95% ethanol within a volumetric flask. Subsequently, double-distilled water was gradually added until reaching a final volume of 5 cm^3. This solution was then diluted with 30 cm^3 of borate buffer.
The LOX enzyme solution was prepared in an ice-cold bath by diluting a stock solution of 10,000 U/mL. For each reaction, 500 U of enzyme was used per 3 cm^3 of reaction mixture. One unit of LOX activity corresponds to an increase in absorbance at 234 nm of 0.001 per minute.
Enzyme activity was monitored by UV spectrophotometry. Specifically, 0.05 cm^3 of enzyme solution was added to a cuvette containing 2 cm^3 of linoleic acid solution, along with the appropriate volumes of buffer and inhibitor solutions 1–5 (concentration range of 1.5 to 12.5 μΜ). The enzymatic activity was determined by measuring the increase in absorbance at 234 nm, which corresponds to the oxidation of linoleic acid (ε = 25,000 M^–1 cm^–1). During the assays, the substrate concentration was maintained constant at 0.3 mM, while the buffer and inhibitor volumes were adjusted to achieve final inhibitor concentrations ranging from 2 to 30 μM.
The degree of LOX activity (A%) in the presence or absence of the 1–5 was calculated according to the following equation: , A%=(Vo(inthepresenceofinhibitor/Vo(withoutinhibitor))×100(%) where V o is the initial rate.
The value of the initial rate (V o, μΜ min^–1) was calculated according to the following formula: Vo=ΔC/Δt=ΔA/ε×Δt=tgα/ε where C is the concentration of the product (hydroperoxy-linoleic acid), t is the reaction time, ε is the molar extinction coefficient of hydroperoxy-linoleic acid, and tgα represents the slope of the kinetic curve obtained by plotting absorbance against time.

The test system of test [2] is MCF-7 cells. In words: Mitochondrial membrane permeabilization (MMP) assay. The format is cell-based, human. As to conditions: MCF-7, IC50 values, 48 h. An excerpt: The assay relies on the fluorescence of a cationic hydrophobic dye, which accumulates in the mitochondrial membrane. Any quenching of the dye’s emitted fluorescence is attributed to the disruption of the mitochondrial membrane, resulting in the release of cytochrome C into the cytosol. ,− The percentage of fluorescence quenching in MCF-7 cells treated with compounds 1–5 is up to 20.7%, with the specific values being 20.0% (1), 20.7% (2), 2.9% (3), 5.1% (4), and 9.6% (5). […] Consequently, cell morphology, AO/EB staining, cell cycle arrest and MMP studies indicate that compounds 1–5 induce apoptosis in MCF-7 cells, primarily through direct or indirect interaction with DNA.
The MMP assay was conducted using the ″Mitochondria Membrane Potential Kit for Microplate Readers″ (MAK147), purchased from Sigma-Aldrich. MCF-7 cells were treated with 1–5 at their IC50 concentration. Fluorescence intensity was measured at an excitation wavelength of λex = 540 nm and an emission wavelength of λem = 590 nm. The experimental results included fluorescence intensities from the treated and untreated cell solutions. ,–

In test [3] the test system is nontumorigenic human breast epithelial cell line (MCF-10A). Nature of the test: SRB toxicity assay, MCF-10A. Type of test: cell-based. As to conditions: 48 h incubation. The protocol: The toxicity of 1–5 was also evaluated against normal human fetal lung fibroblast (MRC-5) cells. Their IC50 values lie from 2.7 to 4.1 μM (Table ). The toxicity of these compounds was also evaluated against the nontumorigenic human breast epithelial cell line (MCF-10A), which is widely used as a model for normal human breast cells. They closely resemble normal human mammary epithelial cells in structure and are regulated by hormones and growth factors.
Cytotoxicity was evaluated using the SRB colorimetric assay at λ = 568 nm, with cell survival percentages calculated relative to the untreated control cells. Detailed information on the SRB assay procedure can be found in the previous publication. ,–

Structures are written as SMILES.

The term IC50 denotes the midpoint of a concentration-inhibition curve. With `c1ccc(-c2nnc([S][Ag]([PH](c3ccccc3)(c3ccccc3)c3ccccc3)([PH](c3ccccc3)(c3ccccc3)c3ccccc3)[PH](c3ccccc3)(c3ccccc3)c3ccccc3)o2)cc1` [compound 1], in test [1], the half-inhibitory concentration (IC50) came to 2.5 µM and the “pIC50 LOX” value is reported as 5.6. In test [2], the “percentage of fluorescence quenching (MMP)” value (shortened to “percentage”) was found to be 20.0%. The same compound gave a concentration for half-maximal inhibition (IC50) in test [3] of 10.6 µM.
As to `Fc1ccccc1-c1nnc([S][Ag]([PH](c2ccccc2)(c2ccccc2)c2ccccc2)([PH](c2ccccc2)(c2ccccc2)c2ccccc2)[PH](c2ccccc2)(c2ccccc2)c2ccccc2)o1` [compound 2], in test [1], the IC50 came out at 7.3 µM and the “pIC50 LOX” value is 5.1. Further, in test [2], the “percentage” value is given as 20.7%. The compound further displayed an IC50 in test [3] of 13.9 µM.
Taken in the same sequence, the figures for `Fc1ccc(-c2nnc([S][Ag]([PH](c3ccccc3)(c3ccccc3)c3ccccc3)([PH](c3ccccc3)(c3ccccc3)c3ccccc3)[PH](c3ccccc3)(c3ccccc3)c3ccccc3)o2)cc1` [compound 3] were 6.8 µM, 5.2, 2.9% and 10.9 µM.
The like results for `Clc1ccccc1-c1nnc([S][Ag]([PH](c2ccccc2)(c2ccccc2)c2ccccc2)([PH](c2ccccc2)(c2ccccc2)c2ccccc2)[PH](c2ccccc2)(c2ccccc2)c2ccccc2)o1` [compound 4] were, in that order, 7.5 µM, 5.1, 5.1% and 16 µM.
As to `Clc1cccc(-c2nnc([S][Ag]([PH](c3ccccc3)(c3ccccc3)c3ccccc3)([PH](c3ccccc3)(c3ccccc3)c3ccccc3)[PH](c3ccccc3)(c3ccccc3)c3ccccc3)o2)c1` [compound 5], the IC50 in test [1] was 1.8 µM; in test [3], 16.1 µM. The “pIC50 LOX” value in test [1] came to 5.7. Besides, the “percentage” value in test [2] amounted to 9.6%.
